Reference: the CheMixHub drug solubility set

Experiment: xn = mol fraction of the nth substance listed, in the solute-free solvent

FC(F)(F)c1cccnc1Cl + CN(C)C=O + CCO
solubility (g/100 g solution)
Settings	263.15 K	268.15 K	273.15 K	278.15 K	283.15 K	288.15 K	293.15 K	298.15 K	303.15 K
x2 = 0.2013	36.2	43.5	51.6	59	67	74.8	82.5	89.4	95.4
x2 = 0.3352	41.2	48.1	56.3	62.5	69.5	77	83.4	90.3	96
x2 = 0.5291	47.4	53.8	60.5	66.9	73.2	79.9	85.7	91.4	96.8
x2 = 0.7496	51.2	57.2	63.7	69.6	75.4	81.3	86.7	92.5	97.7

FC(F)(F)c1cccnc1Cl + CCOC(C)=O + CCCCO
solubility (g/100 g solution)
Settings	263.15 K	268.15 K	273.15 K	278.15 K	283.15 K	288.15 K	293.15 K	298.15 K	303.15 K
x2 = 0.2518	27.4	32.6	37.9	43.8	50.9	57.7	64.8	71.6	77.6
x2 = 0.4023	33.5	38.3	42.5	49.6	54.8	61.4	68	74.3	80.5
x2 = 0.5999	37.2	42.5	47.4	53.5	60.2	66.6	72.6	78.8	84.3
x2 = 0.7998	42.4	47.7	52.6	59	64.3	70.8	76.8	82.4	87.4

Nc1nc2ccc(OC(F)(F)F)cc2s1 + CCO + O
solubility (g/100 g solution)
Settings	278.15 K	283.15 K	288.15 K	293.15 K	298.15 K	303.15 K	308.15 K	313.15 K	318.15 K	323.15 K
x2 = 0.2068	16	19.7	23.8	26.5	32.5	38.3	43.3	47.4	51.7	55.5
x2 = 0.2812	31.4	35.5	39.9	43.9	48.1	52.1	56.1	59.6	62.5	64.8
x2 = 0.3697	56.3	58.7	60.7	63.2	65.5	67.8	69.7	70.9	72.7	74
x2 = 0.4772	50.7	53.3	55.4	58.1	60.6	63.6	66	68	69.9	71.4
x2 = 0.6099	53.2	55.1	57.4	59.7	61.7	63.6	65.3	67	68.6	69.9
x2 = 0.7786	52.6	54.4	57.2	59	61.3	63.1	64.9	66.7	68.2	70

Nc1nc2ccc(OC(F)(F)F)cc2s1 + CC(C)=O + O
solubility (g/100 g solution)
Settings	278.15 K	283.15 K	288.15 K	293.15 K	298.15 K	303.15 K	308.15 K	313.15 K	318.15 K	323.15 K
x2 = 0.1174	2.79	2.99	3.26	3.49	3.89	4.23	4.48	4.79	4.98	5.23
x2 = 0.1714	6.6	6.96	7.42	7.95	8.29	8.75	9.09	9.43	9.77	10.1
x2 = 0.2367	25.5	25.9	26.5	27	27.6	28	28.5	29.1	29.8	30.1
x2 = 0.3175	40.2	40.6	40.9	41.1	41.5	41.8	42	42.3	42.7	43
x2 = 0.4203	55.1	56.3	57	57.7	59	60.2	61.1	62.2	62.9	63.6
x2 = 0.5537	70.6	71.7	72.7	73.6	74.5	75.3	76.2	76.7	77.2	77.8
x2 = 0.7361	68	69	69.9	71	71.8	72.8	73.6	74.2	75	75.7

CC1CCC2C(C)C(OC(=O)CCC(=O)O)OC3OC4(C)CCC1C32OO4 (stereo not drawn) + CC(O)CO + O
solubility (g/100 g solution)
Settings	278.15 K	283.15 K	288.15 K	293.15 K	298.15 K	303.15 K	308.15 K	313.15 K	318.15 K
x2 = 0.02567	0.0421	0.056	0.0717	0.092	0.114	0.145	0.181	0.223	0.275
x2 = 0.05599	0.0843	0.11	0.139	0.176	0.215	0.27	0.333	0.404	0.492
x2 = 0.0921	0.155	0.201	0.25	0.313	0.377	0.466	0.568	0.682	0.819
x2 = 0.1363	0.259	0.33	0.408	0.503	0.606	0.737	0.888	1.05	1.25
x2 = 0.1915	0.384	0.484	0.593	0.724	0.853	1.03	1.23	1.45	1.71
x2 = 0.2622	0.501	0.635	0.77	0.932	1.1	1.3	1.55	1.81	2.09
x2 = 0.3554	0.579	0.73	0.88	1.06	1.24	1.46	1.72	2	2.3
x2 = 0.4866	0.602	0.746	0.906	1.08	1.27	1.48	1.75	2.01	2.31
x2 = 0.6826	0.571	0.704	0.845	1.02	1.19	1.38	1.62	1.86	2.12
